The record followed here is ChEMBL document CHEMBL1146115, “Synthesis and evaluation of novel heterocyclic inhibitors of GSK-3” (Bioorg Med Chem Lett, 2006).

For the assay, the target named is Glycogen synthase kinase-3 (Homo sapiens, UniProt P49840+P49841). In words: Inhibition of GSK3. Type of assay: protein assay.
`COc1cccc(-n2ccc3c(N/N=C/c4ccncc4)ncnc32)c1`: the “Log IC50” value is -7.5.

Consider `COc1cccc(-c2[nH]nc3c(N/N=C/c4ccncc4)ncnc23)c1`, for which the “Log IC50” value is recorded as -8.3.

In the case of `COc1cccc(-c2cn(C)c3c(N/N=C/c4ccncc4)ncnc23)c1`, the “Log IC50” value is -6.3.

In the case of `COc1cccc(-n2ncc3c(N/N=C/c4ccncc4)ncnc32)c1` [GW784752X], the “Log IC50” value is given as -8.2.

Take `COc1cccc(-n2cnc3c(N/N=C/c4ccncc4)ncnc32)c1` [GW813360X]: the “Log IC50” value is recorded as -6.2.

`COc1cccc(-c2c[nH]c3c(N/N=C/c4ccncc4)ncnc23)c1` [GW814408X]: the “Log IC50” value was -8.3.
